Experimental data published in PMC7442682 (Chemical biology & drug design, 2020).

What was measured:
α2A adrenergic receptor = target: T1, α2A adrenergic receptor (Homo sapiens, UniProt P08913); experiment: PDSP radioligand binding, α2A adrenergic receptor
T1 sequence (P08913 1-465): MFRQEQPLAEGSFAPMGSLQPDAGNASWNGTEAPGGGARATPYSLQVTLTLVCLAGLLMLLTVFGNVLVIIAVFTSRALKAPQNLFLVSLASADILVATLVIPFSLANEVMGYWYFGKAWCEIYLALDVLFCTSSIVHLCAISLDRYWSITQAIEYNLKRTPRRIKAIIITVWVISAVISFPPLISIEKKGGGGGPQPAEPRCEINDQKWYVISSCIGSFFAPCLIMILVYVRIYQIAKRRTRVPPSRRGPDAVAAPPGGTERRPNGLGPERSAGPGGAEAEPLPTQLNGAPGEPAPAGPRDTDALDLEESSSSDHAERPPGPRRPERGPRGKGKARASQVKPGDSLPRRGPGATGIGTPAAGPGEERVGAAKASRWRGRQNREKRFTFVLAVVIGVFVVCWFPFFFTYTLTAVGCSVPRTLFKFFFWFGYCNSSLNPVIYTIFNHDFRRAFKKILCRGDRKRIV

D1 receptor = D1 receptor (Homo sapiens, UniProt P21728); experiment: PDSP radioligand binding, dopamine D1 receptor
Sequence of D1 receptor (P21728 whole entry): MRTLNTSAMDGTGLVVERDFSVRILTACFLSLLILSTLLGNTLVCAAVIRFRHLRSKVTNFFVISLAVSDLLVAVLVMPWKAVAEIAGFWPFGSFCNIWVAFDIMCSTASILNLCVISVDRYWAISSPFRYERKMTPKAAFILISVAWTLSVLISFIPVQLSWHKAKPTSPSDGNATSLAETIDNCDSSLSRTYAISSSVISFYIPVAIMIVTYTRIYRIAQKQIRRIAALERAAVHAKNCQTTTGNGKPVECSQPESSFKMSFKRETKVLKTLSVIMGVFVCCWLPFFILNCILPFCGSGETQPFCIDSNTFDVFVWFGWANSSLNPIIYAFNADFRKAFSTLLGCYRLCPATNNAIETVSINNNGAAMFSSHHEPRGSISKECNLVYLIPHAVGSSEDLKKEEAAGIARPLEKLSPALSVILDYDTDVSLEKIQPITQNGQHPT

α1A adrenergic receptor = target: T2, α1A adrenergic receptor (Homo sapiens, UniProt P35348); experiment: PDSP radioligand binding, α1A adrenergic receptor
T2 sequence (P35348 1-466): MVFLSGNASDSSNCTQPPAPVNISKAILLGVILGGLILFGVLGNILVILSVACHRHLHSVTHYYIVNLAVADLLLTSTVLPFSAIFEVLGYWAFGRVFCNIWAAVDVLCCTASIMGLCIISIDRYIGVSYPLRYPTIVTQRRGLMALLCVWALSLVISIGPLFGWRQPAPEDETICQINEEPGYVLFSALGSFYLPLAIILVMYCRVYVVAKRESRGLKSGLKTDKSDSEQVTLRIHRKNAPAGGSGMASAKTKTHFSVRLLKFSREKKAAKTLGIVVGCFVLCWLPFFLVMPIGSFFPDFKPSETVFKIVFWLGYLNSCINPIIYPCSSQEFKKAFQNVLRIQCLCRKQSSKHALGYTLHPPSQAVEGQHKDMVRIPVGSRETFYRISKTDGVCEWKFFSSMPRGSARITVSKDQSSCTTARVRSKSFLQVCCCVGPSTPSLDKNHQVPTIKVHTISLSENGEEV

5-HT1A receptor = target: T3, 5-HT1A receptor (Homo sapiens, UniProt P08908); experiment: PDSP radioligand binding, 5-HT1A receptor
T3 sequence (P08908 1-422): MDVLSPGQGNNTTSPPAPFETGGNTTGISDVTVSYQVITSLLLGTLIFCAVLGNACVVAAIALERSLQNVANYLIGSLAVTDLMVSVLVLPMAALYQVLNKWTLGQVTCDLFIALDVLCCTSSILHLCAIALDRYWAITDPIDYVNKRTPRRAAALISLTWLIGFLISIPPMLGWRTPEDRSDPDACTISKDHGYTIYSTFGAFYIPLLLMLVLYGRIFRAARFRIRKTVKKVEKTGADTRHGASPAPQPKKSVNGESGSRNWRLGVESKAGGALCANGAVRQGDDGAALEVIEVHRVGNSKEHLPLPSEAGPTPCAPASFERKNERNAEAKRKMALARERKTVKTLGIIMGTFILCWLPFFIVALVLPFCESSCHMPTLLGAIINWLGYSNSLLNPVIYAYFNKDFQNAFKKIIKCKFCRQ

5-HT5A receptor = 5-HT5A receptor (Homo sapiens, UniProt P47898); experiment: PDSP radioligand binding, 5-HT5A receptor
Sequence of 5-HT5A receptor (P47898 whole entry): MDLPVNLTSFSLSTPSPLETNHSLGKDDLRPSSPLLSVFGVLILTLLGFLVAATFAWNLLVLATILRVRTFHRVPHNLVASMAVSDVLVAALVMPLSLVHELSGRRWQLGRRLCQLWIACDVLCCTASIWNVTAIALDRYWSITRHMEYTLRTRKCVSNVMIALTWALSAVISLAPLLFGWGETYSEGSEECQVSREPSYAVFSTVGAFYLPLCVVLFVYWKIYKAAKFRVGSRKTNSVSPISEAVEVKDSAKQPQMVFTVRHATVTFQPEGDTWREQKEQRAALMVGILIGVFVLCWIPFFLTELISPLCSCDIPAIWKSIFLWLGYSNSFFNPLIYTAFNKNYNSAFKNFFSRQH

5-HT2A receptor = 5-HT2A receptor (Homo sapiens, UniProt P28223); experiment: PDSP radioligand binding, 5-HT2A receptor
Sequence of 5-HT2A receptor (P28223 whole entry): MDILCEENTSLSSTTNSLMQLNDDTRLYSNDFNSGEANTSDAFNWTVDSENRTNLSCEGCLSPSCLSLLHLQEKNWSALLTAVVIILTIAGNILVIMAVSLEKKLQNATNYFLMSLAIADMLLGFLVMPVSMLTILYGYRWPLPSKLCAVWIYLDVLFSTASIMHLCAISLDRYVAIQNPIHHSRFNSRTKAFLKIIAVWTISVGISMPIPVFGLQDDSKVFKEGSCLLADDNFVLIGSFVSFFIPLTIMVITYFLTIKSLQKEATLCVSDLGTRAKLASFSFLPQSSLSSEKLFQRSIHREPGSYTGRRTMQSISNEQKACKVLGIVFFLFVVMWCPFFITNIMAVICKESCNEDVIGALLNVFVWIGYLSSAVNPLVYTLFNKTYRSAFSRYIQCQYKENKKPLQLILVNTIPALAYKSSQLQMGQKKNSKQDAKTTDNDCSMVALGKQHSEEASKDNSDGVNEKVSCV

D5 receptor = D5 receptor (Homo sapiens, UniProt P21918); experiment: PDSP radioligand binding, dopamine D5 receptor; settings: read-out: Ki D5
Sequence of D5 receptor (P21918 whole entry): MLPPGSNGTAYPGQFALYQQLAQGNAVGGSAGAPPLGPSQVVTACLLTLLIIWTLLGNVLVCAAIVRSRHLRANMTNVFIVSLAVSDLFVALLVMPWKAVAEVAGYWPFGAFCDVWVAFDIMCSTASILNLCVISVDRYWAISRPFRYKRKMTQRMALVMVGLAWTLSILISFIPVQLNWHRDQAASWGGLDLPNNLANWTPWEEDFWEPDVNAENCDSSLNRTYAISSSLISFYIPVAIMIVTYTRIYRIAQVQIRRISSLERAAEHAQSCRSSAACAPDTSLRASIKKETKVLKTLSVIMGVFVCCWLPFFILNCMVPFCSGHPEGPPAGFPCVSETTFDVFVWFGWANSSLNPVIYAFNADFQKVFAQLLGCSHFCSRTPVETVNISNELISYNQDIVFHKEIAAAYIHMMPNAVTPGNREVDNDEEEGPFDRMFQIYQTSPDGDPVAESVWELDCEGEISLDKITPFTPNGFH

α2C adrenergic receptor = target: T4, α2C adrenergic receptor (Homo sapiens, UniProt P18825); experiment: PDSP radioligand binding, α2C adrenergic receptor
T4 sequence (P18825 1-462): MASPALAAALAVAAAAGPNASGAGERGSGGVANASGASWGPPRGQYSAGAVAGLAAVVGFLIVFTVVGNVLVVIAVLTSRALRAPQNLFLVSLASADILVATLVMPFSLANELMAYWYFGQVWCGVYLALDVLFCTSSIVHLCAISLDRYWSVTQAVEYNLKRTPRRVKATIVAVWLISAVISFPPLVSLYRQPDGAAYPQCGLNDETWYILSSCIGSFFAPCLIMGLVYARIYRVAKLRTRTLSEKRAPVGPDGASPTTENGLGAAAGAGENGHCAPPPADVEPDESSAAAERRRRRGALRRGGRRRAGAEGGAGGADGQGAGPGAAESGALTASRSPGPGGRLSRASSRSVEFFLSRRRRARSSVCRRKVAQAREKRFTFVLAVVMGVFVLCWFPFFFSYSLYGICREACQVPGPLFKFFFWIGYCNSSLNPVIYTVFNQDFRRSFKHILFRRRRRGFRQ

5-HT6 receptor = 5-HT6 receptor (Homo sapiens, UniProt P50406); experiment: PDSP radioligand binding, 5-HT6 receptor; settings: for 5-HT6 selectivity versus the other receptors tested: versus all other dopamine, serotonin and adrenergic receptors tested
Sequence of 5-HT6 receptor (P50406 whole entry): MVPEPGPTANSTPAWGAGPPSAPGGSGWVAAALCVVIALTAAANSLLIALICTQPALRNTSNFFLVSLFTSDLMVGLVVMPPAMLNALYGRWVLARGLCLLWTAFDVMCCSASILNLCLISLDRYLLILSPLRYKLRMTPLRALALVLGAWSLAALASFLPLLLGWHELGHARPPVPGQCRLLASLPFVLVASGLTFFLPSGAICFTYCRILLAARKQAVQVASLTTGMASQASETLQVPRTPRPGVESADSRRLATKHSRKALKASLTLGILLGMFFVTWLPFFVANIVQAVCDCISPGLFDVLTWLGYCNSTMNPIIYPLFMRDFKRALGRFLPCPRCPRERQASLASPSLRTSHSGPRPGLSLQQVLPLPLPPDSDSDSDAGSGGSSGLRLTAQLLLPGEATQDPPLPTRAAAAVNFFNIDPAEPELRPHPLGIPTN

D4 receptor = target: T5, D4 receptor (Homo sapiens, UniProt P21917); experiment: PDSP radioligand binding, dopamine D4 receptor; settings: read-out: Ki D4
T5 sequence (P21917 1-419): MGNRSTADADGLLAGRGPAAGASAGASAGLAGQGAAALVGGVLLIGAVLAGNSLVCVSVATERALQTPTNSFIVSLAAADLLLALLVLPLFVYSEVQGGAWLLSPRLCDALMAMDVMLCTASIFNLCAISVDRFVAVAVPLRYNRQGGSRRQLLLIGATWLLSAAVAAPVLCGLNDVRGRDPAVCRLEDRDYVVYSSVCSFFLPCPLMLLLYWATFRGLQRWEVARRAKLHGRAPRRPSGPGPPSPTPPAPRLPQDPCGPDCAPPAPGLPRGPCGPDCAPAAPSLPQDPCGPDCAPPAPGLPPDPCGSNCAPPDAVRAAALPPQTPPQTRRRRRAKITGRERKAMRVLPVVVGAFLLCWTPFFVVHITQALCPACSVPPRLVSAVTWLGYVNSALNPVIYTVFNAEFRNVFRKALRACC

α2B adrenergic receptor = target: T6, α2B adrenergic receptor (Homo sapiens, UniProt P18089); experiment: PDSP radioligand binding, α2B adrenergic receptor
T6 sequence (P18089 1-450): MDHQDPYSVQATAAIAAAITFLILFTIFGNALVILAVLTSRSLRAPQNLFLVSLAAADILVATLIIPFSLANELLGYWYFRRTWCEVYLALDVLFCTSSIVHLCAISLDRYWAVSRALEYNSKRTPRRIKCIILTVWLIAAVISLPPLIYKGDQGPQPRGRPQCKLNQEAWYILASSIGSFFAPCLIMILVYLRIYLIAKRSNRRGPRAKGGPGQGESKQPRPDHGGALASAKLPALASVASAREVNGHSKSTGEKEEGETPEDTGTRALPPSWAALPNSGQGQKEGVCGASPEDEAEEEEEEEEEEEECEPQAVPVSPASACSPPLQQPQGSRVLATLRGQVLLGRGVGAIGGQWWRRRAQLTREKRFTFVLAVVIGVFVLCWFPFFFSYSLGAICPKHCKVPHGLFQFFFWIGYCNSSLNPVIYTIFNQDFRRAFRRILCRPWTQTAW

5-HT1B receptor = 5-HT1B receptor (Homo sapiens, UniProt P28222); experiment: PDSP radioligand binding, 5-HT1B receptor
Sequence of 5-HT1B receptor (P28222 whole entry): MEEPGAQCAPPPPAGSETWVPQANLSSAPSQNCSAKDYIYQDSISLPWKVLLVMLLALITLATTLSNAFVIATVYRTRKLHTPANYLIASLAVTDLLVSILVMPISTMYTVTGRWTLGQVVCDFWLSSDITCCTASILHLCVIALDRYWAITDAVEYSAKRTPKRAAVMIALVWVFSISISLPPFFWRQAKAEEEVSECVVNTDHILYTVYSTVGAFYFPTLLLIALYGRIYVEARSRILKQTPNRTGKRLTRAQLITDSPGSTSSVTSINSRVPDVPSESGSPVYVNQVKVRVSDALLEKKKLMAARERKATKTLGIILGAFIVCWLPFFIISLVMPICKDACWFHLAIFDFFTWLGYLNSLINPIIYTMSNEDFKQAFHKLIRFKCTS

α1B adrenergic receptor = target: T7, α1B adrenergic receptor (Homo sapiens, UniProt P35368); experiment: PDSP radioligand binding, α1B adrenergic receptor; settings: for inhibition at 10 µM: read-out: Ki α1B
T7 sequence (P35368 1-520): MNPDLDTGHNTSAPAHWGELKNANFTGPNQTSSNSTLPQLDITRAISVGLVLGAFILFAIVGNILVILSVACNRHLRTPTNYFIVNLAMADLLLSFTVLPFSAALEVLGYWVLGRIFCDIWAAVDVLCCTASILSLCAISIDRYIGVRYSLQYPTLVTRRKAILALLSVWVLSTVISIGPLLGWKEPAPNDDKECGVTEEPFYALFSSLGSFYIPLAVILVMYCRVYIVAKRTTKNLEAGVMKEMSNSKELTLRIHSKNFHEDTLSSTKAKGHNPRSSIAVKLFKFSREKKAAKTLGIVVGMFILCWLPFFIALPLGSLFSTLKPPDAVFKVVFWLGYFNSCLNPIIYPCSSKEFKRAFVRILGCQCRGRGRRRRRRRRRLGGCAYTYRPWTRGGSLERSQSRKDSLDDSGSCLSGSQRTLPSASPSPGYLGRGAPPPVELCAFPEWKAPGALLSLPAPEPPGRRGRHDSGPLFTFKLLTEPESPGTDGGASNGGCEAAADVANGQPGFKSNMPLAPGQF

D3 receptor = D3 receptor (Homo sapiens, UniProt P35462); experiment: PDSP radioligand binding, dopamine D3 receptor
Sequence of D3 receptor (P35462 whole entry): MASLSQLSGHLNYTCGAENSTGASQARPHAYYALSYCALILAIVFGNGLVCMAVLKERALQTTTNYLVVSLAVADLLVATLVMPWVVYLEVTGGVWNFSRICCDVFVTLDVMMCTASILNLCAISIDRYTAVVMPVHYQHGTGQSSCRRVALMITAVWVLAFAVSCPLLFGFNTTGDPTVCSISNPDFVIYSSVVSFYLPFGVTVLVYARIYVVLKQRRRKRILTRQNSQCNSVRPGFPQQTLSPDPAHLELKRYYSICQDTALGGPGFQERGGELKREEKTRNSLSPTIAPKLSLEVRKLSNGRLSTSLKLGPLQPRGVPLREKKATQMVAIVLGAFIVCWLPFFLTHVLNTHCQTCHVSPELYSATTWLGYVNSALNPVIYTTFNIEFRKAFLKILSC

D2 receptor = D2 receptor (Homo sapiens, UniProt P14416); experiment: PDSP radioligand binding, dopamine D2 receptor
Sequence of D2 receptor (P14416 whole entry): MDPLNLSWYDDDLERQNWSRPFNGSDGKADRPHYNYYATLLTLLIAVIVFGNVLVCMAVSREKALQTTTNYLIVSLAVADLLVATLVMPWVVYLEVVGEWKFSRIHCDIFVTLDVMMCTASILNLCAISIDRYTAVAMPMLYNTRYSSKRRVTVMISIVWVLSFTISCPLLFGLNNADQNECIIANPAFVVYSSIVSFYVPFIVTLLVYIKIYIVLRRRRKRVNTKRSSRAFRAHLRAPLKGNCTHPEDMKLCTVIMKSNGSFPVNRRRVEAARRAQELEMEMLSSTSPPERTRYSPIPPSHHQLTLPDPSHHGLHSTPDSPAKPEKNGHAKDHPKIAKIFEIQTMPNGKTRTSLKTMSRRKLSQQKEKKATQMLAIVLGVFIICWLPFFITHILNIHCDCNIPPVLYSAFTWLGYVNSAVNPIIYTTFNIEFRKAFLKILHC

Row | Structure (SMILES) | Ki (α2A adrenergic receptor) | Ki (D1 receptor) | Ki (α1A adrenergic receptor) | Ki (5-HT1A receptor) | Ki (5-HT5A receptor) | Ki (5-HT2A receptor) | inhibition at 10 µM (D5 receptor) | Ki (α2C adrenergic receptor) | Ki (5-HT6 receptor) | inhibition at 10 µM (D4 receptor) | Ki (α2B adrenergic receptor) | Ki (5-HT1B receptor) | inhibition at 10 µM (α1B adrenergic receptor) | Ki (D3 receptor) | Ki (D2 receptor) | 5-HT6 selectivity versus the other receptors tested (5-HT6 receptor) | Ki (α1B adrenergic receptor) | also measured
1 | Oc1cc2c3c(c1O)-c1ccccc1C3CNCC2 (stereo not shown) [Compound 11, 2,3,4,11b-tetrahydro-1H-fluoreno[9,1-cd]azepine-6,7-diol] | 2.59 µM | 8.82 µM | 3.2 µM | 0.151 µM | 0.244 µM | 1.56 µM | < 10% | 1.11 µM | 0.038 µM | < 10% | 2.2 µM | 0.451 µM | < 10% | 2.92 µM |  |  |  | 
2 | COc1cc2c3c(c1OC)-c1ccccc1C3CN(C)CC2 (stereo not shown) [Compound 12, 6,7-dimethoxy-2-methyl-2,3,4,11b-tetrahydro-1H-fluoreno[9,1-cd]azepine] | 1.17 µM | 2.46 µM | 2.86 µM |  | 0.286 µM | 0.811 µM | < 10% | 0.472 µM | 0.005 µM | < 10% |  |  |  | 0.079 µM | 0.636 µM | at least 15 fold | 5.87 µM | inhibition at 10 µM (5-HT1A receptor; read-out: Ki 5-HT1A): < 10%; inhibition at 10 µM (α2B adrenergic receptor; read-out: Ki α2B): < 10%; inhibition at 10 µM (5-HT1B receptor; read-out: Ki 5-HT1B): < 10%
3 | CN1CCc2cc(O)c(O)c3c2C(C1)c1ccccc1-3 (stereo not shown) [Compound 13, 2-methyl-2,3,4,11b-tetrahydro-1H-fluoreno[9,1-cd]azepine-6,7-diol] |  | 0.865 µM | > 10 µM | 0.393 µM | 0.363 µM | 0.352 µM | < 10% | 1.96 µM | 0.123 µM | < 10% | 5.82 µM | 1.03 µM | < 10% |  |  |  |  | inhibition at 10 µM (α2A adrenergic receptor; read-out: Ki α2A): < 10%; inhibition at 10 µM (D2 receptor; read-out: Ki D2): < 10%; inhibition at 10 µM (D3 receptor; read-out: Ki D3): < 10%
4 | COc1cc2c3c(c1OC)-c1ccccc1C3CNCC2 (stereo not shown) [Compound 10, 6,7-dimethoxy-2,3,4,11b-tetrahydro-1H-fluoreno[9,1-cd]azepine] | 1.6 µM |  | 0.545 µM | 0.11 µM | 0.578 µM | 1.68 µM | < 10% | 0.774 µM | 0.005 µM | < 10% | 1.12 µM | 0.255 µM |  | 0.415 µM | 0.78 µM | at least 15 fold | 2.59 µM | inhibition at 10 µM (D1 receptor; read-out: Ki D1): < 10%
